{"source": "patent US10130655B2", "about": "“Composition and method for pre-surgical skin disinfection” (GOJO INDUSTRIES, INC., priority 2006, dated 2018)", "assay": "Irritation potential, independent laboratory testing (Total Cumulative Irritation, Berger & Bowman)", "conditions": "in vivo", "excerpt": "Independent laboratory testing compared irritation potential of commercial products, controls, and a disinfecting composition according to the present invention.", "data": [{"smiles": "CCCCCCCCCCCCOS(=O)(=O)[O-].[Na+]", "note": "[Sodium Lauryl Sulfate]", "values": [{"measurement": "Berger & Bowman Classification", "result": "Possibly Mild in use"}, {"measurement": "CIT Score (Total Cumulative Irritation)", "result": 1321.0}]}]}
